Source: paper PMC10714424, “Discovery of a Potent Dual Inhibitor of Aromatase and Aldosterone Synthase” (ACS Pharmacology & Translational Science, 2023)
Read-outs that look alike come from different tables or passages of the source.

Key:
CYP19A1 (Aromatase) = molecular target: T1, CYP19A1 (Aromatase) (Homo sapiens, UniProt P11511); assay: Aromatase (CYP19A1) Inhibitor Screening Kit, recombinant enzyme; assay type: biochemical
T1 construct: purchased BioVision K984-100
T1 sequence (P11511 1-503): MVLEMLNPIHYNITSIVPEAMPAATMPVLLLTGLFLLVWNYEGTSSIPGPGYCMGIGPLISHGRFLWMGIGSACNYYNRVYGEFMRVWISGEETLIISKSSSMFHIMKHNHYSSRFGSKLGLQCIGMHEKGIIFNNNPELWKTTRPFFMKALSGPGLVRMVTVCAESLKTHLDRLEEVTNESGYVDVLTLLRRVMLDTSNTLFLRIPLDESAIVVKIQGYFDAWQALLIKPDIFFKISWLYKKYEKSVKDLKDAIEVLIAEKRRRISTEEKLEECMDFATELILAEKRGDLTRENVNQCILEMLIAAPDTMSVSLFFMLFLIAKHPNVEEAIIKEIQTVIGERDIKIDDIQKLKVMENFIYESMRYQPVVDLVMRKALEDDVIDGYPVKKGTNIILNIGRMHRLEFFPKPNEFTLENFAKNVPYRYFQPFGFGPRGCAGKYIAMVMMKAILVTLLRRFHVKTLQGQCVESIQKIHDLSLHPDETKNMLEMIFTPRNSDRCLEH
Method: The in vitro tests on Aromatase were performed by using the Kit Cat# K984-100 assay kit; the Regeneration System, 100× and NADP^+: (100×), 10 mM were used as reaction buffer. In particular, the enzyme was first prepared with the Regeneration System and substrate with NADP^+ in freshly prepared reaction buffer. Then, the resulting solution was delivered into the reaction well.

[1] = system: CYP11B2 (Aldosterone Synthase); details: cited from earlier work
MCF-7 cells = assay: Cell proliferation assay (trypan blue cell count); assay type: cell-based, human; details: read-out: antiproliferative IC50
Method: MCF-7 and MDA-MB-231 cells were plated in 24-well plates and allowed to attach overnight. […] At the end of the treatment, viable cells (evaluated by trypan blue dye exclusion) were counted with a hemocytometer.

[2] = molecular target: CYP11B1 (11β-Hydroxylase); details: cited from earlier work

SMILES: OCc1cnc(S)n1Cc1ccc(Cl)cc1Cl [X1]
- inhibition of CYP19A1 (CYP19A1 (Aromatase)): no inhibition

SMILES: O=[N+]([O-])c1cc(C(F)(F)F)ccc1Sc1ncc(CO)n1Cc1ccccc1 [X12, (1-Benzyl-2-((2-nitro-4-(trifluoromethyl)phenyl)thio)-1H-imidazol-5-yl)methanol]
- melting point: 225.4 to 226.9 °C

SMILES: N#Cc1ccc(C(c2ccc(C#N)cc2)n2cncn2)cc1 [letrozole]
- IC50 [1]: 1420 nM
- IC50 (MCF-7 cells; Homo sapiens, MCF7, 24 h, MCF-7, 24 h): 764 ± 114 nM
- IC50 (MCF-7 cells; Homo sapiens, MCF7, 48 h, MCF-7, 48 h): 599 ± 333 nM
- IC50 (MCF-7 cells; Homo sapiens, MCF7, 72 h, MCF-7, 72 h): 121 ± 30 nM
- IC50 (MCF-7 cells; MCF-7, 72 h): 120 ± 30 nM
- IC50 [2]: 2620 nM
